The text below walks through data of US7195752B2, “Surfactant compounds and uses thereof” (Glaxo Group Limited, priority 2001, dated 2007).

The nature of series [1]: Particle size by image analysis (Galai CIS-100) of salmeterol xinafoate HFA 134a suspension. Format: physicochemical. The conditions noted are these: salmeterol xinafoate 25 μg per actuation in HFA 134a, 10% w/w (relative to drug) surfactant; mean of 4 determinations. On the procedure:
(§1) Salmeterol xinafoate formulations in HFA 134a, of strength 25 μg per actuation, and 10% w/w (relative to drug) of the relevant surfactant compound of formula (I) were prepared using salmeterol xinafoate (5.8 mg), HFA 134a (12 g) and the relevant compound (0.58 mg). The control was prepared without the addition of a surfactant.
In this measurement, particle size is represented as the equivalent diameter of a circle of equal area to the object. The mean is the average of 4 determinations. The particle size measurement was obtained by transferring the suspensions to a presurised cell, and video-imaging the sample under shear via a microscope objective.
The equivalent diameter is defined as the diameter of a circle of equal area to the object.
The mean equivalent diameter can be weighted by number, length or volume. e.g. For three particles with equivalent diameters of x, y and z: […]

The nature of series [2]: Content uniformity by dose through use testing of salmeterol xinafoate HFA 134a inhalers. It counts as physicochemical. The following applies: 10% w/w surfactant. As to the method:
as §1
The content uniformity of the formulation, the preparation of which is described above, was assessed by dose through use testing. Testing was performed on 10 cans/inhalers at “beginning of use” (BoU) and “end of use” (EoU). After each inhaler had been primed (4 shots fired to waste), actuations 1 and 2 (BoU) were collected. The next 116 actuations of each inhaler were then fired to waste using an automated method and actuations 119 and 120 (EoU) collected.
The assesment of content uniformity was performed intially (following sample preparation). The results are quoted in Table 2 as the mean of the two BoU actuations for 10 inhalers (1+2 for 10 inhalers) and the mean of two EoU actuations for the said 10 inhalers (119+120 for the same 10 inhalers) together with the percentage relative standard deviation (% RSD).

For `O=C(O)COCCCCCCC(F)(F)C(F)(F)F` [Example 5, [(7,7,8,8,8-Pentafluorooctyl)oxy]acetic acid], the “Mean Length weighted diameter” value in series [1] is 13.8 μm. Also, the “rise in dose from beginning to end of use” value in series [2] (EoU minus BoU dose, 10 inhalers, salmeterol xinafoate in HFA 134a) worked out at 1.8 µg. Moreover, the BoU dose in series [2] (beginning of use, mean of actuations 1+2 for 10 inhalers, salmeterol xinafoate 25 μg per actuation in HFA 134a, initial) turned out to be 19.0 µg. In series [2] (end of use, mean of actuations 119+120 for 10 inhalers, salmeterol xinafoate 25 μg per actuation in HFA 134a, initial), the EoU dose amounted to 21.8 µg.
